Test results as given in patent US12157717B2, “Compounds for the treatment of bovine or swine respiratory disease” (Intervet Inc., priority 2018, dated 2024).
In brackets after ≈: the same amount, converted by molar mass.

Key:
Type in all cases: cell-based
[1] = system: Mannheimia haemolytica MH 6357 (M7/2); assay: MIC, broth-microdilution (CLSI), strain MH 6357; conditions: Mannheimia haemolytica M7/2, reference strain (cattle infection strain)
Experimental: (§1) The Minimum inhibitory concentrations (MIC) of compounds according to the invention for a number of veterinary bacterial pathogens were determined by the broth-microdilution method according to CLSI document VETO 1-A4.
(§2) Microdilution trays containing a doubling dilution series of the test compound were used for the tests. The MIC results were interpreted according to the CLSI documents VET01-S3. The lowest concentration of compound at which no visible growth (i.e. no turbidity) detected by the unaided eye was recorded as the MIC.

[2] = system: Mannheimia haemolytica MH 6374 (ATCC 33396); assay: MIC, broth-microdilution (CLSI), strain MH 6374; conditions: Mannheimia haemolytica ATCC 33396, reference strain
Experimental: as §1, §2

[3] = system: Mannheimia haemolytica MH 10720 (154); assay: MIC, broth-microdilution (CLSI), strain MH 10720; conditions: Mannheimia haemolytica 154, BRD field isolate
Experimental: as §1, §2

[4] = system: Mannheimia haemolytica MH 12587 (1071), macrolide-resistance: erm+, E+; assay: MIC, broth-microdilution (CLSI), strain MH 12587; conditions: Mannheimia haemolytica 1071, BRD field isolate
Experimental: as §1, §2

[5] = system: Mannheimia haemolytica MH 13065 (XB0446-6003.9); assay: MIC, broth-microdilution (CLSI), strain MH 13065; conditions: Mannheimia haemolytica XB0446-6003.9, BRD field isolate
Experimental: as §1, §2

[6] = system: Mannheimia haemolytica MH 13093 (XB0472-6014.1); assay: MIC, broth-microdilution (CLSI), strain MH 13093; conditions: Mannheimia haemolytica XB0472-6014.1, BRD field isolate
Experimental: as §1, §2

[7] = system: Pasteurella multocida PM 6267 (P 2225 (L386)); assay: MIC, broth-microdilution (CLSI), strain PM 6267; conditions: Pasteurella multocida P 2225 (L386), reference strain (mouse infection strain)
Experimental: as §1, §2

[8] = system: Pasteurella multocida PM 6391 (ATCC 43137); assay: MIC, broth-microdilution (CLSI), strain PM 6391; conditions: Pasteurella multocida ATCC 43137, reference strain
Experimental: as §1, §2

[9] = system: Pasteurella multocida PM 10775 (080130003051); assay: MIC, broth-microdilution (CLSI), strain PM 10775; conditions: Pasteurella multocida 080130003051, BRD field isolate
Experimental: as §1, §2

[10] = system: Pasteurella multocida PM 12080 (IV102277-0093); assay: MIC, broth-microdilution (CLSI), strain PM 12080; conditions: Pasteurella multocida IV102277-0093, BRD field isolate
Experimental: as §1, §2

Row | SMILES | MIC MH 6357 [1] | MIC MH 6374 [2] | MIC MH 10720 [3] | MIC MH 12587 [4] | MIC MH 13065 [5] | MIC MH 13093 [6] | MIC PM 6267 [7] | MIC PM 6391 [8] | MIC PM 10775 [9] | MIC PM 12080 [10]
1 | CNC(=O)C(NC(=O)c1ccc(C#Cc2ccc(CNCc3cccs3)cc2)cc1)C(=O)NO (centres unmarked) [Compound 15] | 0.2 µM (≈ 0.0953 µg/mL) | 0.2 µM (≈ 0.0953 µg/mL) | ≤0.1 µM | 0.8 µM (≈ 0.381 µg/mL) | 0.2 µM (≈ 0.0953 µg/mL) | 0.2 µM (≈ 0.0953 µg/mL) | ≤0.1 µM | ≤0.1 µM | ≤0.1 µM | ≤0.1 µM
2 | C#CCNCc1ccc(C#Cc2ccc(C(=O)N(C)C(C(=O)NC)C(=O)NO)cc2)cc1 (centres unmarked) [Compound 30] | 0.8 µM (≈ 0.346 µg/mL) | 0.8 µM (≈ 0.346 µg/mL) | 0.4 µM (≈ 0.173 µg/mL) | 3.1 µM (≈ 1.34 µg/mL) | 1.6 µM (≈ 0.692 µg/mL) | 1.6 µM (≈ 0.692 µg/mL) | 0.4 µM (≈ 0.173 µg/mL) | 1.6 µM (≈ 0.692 µg/mL) | ≤0.1 µM | 0.8 µM (≈ 0.346 µg/mL)
3 | CNC(=O)C(NC(=O)c1ccc(C#Cc2ccc(CNCc3ccccn3)cc2)cc1)C(=O)NO (centres unmarked) [Compound 13] | 0.8 µM (≈ 0.377 µg/mL) | 0.8 µM (≈ 0.377 µg/mL) | 0.2 µM (≈ 0.0943 µg/mL) | 1.6 µM (≈ 0.754 µg/mL) | 1.6 µM (≈ 0.754 µg/mL) | 0.8 µM (≈ 0.377 µg/mL) | ≤0.1 µM | 0.2 µM (≈ 0.0943 µg/mL) | ≤0.1 µM | ≤0.1 µM
4 | CNC(=O)C(NC(=O)c1ccc(C#Cc2ccc(CNC3CCC3)cc2)cc1)C(=O)NO (centres unmarked) [Compound 8] | 3.1 µM (≈ 1.35 µg/mL) | 6.3 µM (≈ 2.74 µg/mL) | 1.6 µM (≈ 0.695 µg/mL) | 12.5 µM (≈ 5.43 µg/mL) | 6.3 µM (≈ 2.74 µg/mL) | 6.3 µM (≈ 2.74 µg/mL) | ≤0.1 µM | 0.4 µM (≈ 0.174 µg/mL) | ≤0.1 µM | 0.4 µM (≈ 0.174 µg/mL)
5 | CNC(=O)C(NC(=O)c1ccc(C#Cc2ccc(CNCc3ccc(C)cc3)cc2)cc1)C(=O)NO (centres unmarked) [Compound 16] | 0.4 µM (≈ 0.194 µg/mL) | 0.8 µM (≈ 0.388 µg/mL) | 0.2 µM (≈ 0.0969 µg/mL) | 1.6 µM (≈ 0.775 µg/mL) | 0.8 µM (≈ 0.388 µg/mL) | 1.6 µM (≈ 0.775 µg/mL) | ≤0.1 µM | 0.4 µM (≈ 0.194 µg/mL) | ≤0.1 µM | 0.2 µM (≈ 0.0969 µg/mL)
6 | CNC(=O)C(C(=O)NO)N(C)C(=O)c1ccc(C#Cc2ccc(CN3CCOCC3)cc2)cc1 (centres unmarked) [Compound 22] | 1.6 µM (≈ 0.743 µg/mL) | 1.6 µM (≈ 0.743 µg/mL) | 0.4 µM (≈ 0.186 µg/mL) | 6.3 µM (≈ 2.93 µg/mL) | 3.1 µM (≈ 1.44 µg/mL) | 3.1 µM (≈ 1.44 µg/mL) | ≤0.1 µM | 0.4 µM (≈ 0.186 µg/mL) | ≤0.1 µM | 0.4 µM (≈ 0.186 µg/mL)
7 | C=CCNCc1ccc(C#Cc2ccc(C(=O)NC(C(=O)NC)C(=O)NO)cc2)cc1 (centres unmarked) [Compound 2] | 0.8 µM (≈ 0.336 µg/mL) | 1.6 µM (≈ 0.673 µg/mL) | 0.4 µM (≈ 0.168 µg/mL) | 0.8 µM (≈ 0.336 µg/mL) | 0.8 µM (≈ 0.336 µg/mL) | 1.6 µM (≈ 0.673 µg/mL) | 0.2 µM (≈ 0.0841 µg/mL) | 0.4 µM (≈ 0.168 µg/mL) | ≤0.1 µM | ≤0.1 µM
8 | CNC(=O)C(C(=O)NO)N(C)C(=O)c1ccc(C#Cc2ccc(CNCc3ccc(OC)cc3)cc2)cc1 (centres unmarked) [Compound 24] | 1.6 µM (≈ 0.823 µg/mL) | 1.6 µM (≈ 0.823 µg/mL) | 0.8 µM (≈ 0.412 µg/mL) | 12.5 µM (≈ 6.43 µg/mL) | 3.1 µM (≈ 1.6 µg/mL) | 6.3 µM (≈ 3.24 µg/mL) | 0.4 µM (≈ 0.206 µg/mL) | 1.6 µM (≈ 0.823 µg/mL) | ≤0.1 µM | 1.6 µM (≈ 0.823 µg/mL)
